Where a SMILES comes first, the peptide text is derived from it. Bridges are numbered along the chain shown (N, C = ends). [ ]: non-standard residue; d: D form. The star is where a group is joined. hPhe(3-Cl-4-CF3) = N[C@@H](CCc1ccc(C(F)(F)F)c(Cl)c1)C(=O)O; NEtPhe(4-Me) = CCN[C@@H](Cc1ccc(C)cc1)C(=O)O; NMeD = CN[C@@H](CC(=O)O)C(=O)O; NMeL = CN[C@@H](CC(C)C)C(=O)O; NMeV = CN[C@H](C(=O)O)C(C)C; Morpholide = C1CN(*)CCO1; Ac5c = NC1(C(=O)O)CCCC1; Sar = CNCC(=O)O
What was measured:
[1] = system: human lung cancer strain NCI-H441; type: cell-based
Outline: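 Step one: dispense the test compound in serial DMSO dilutions. Step three: add the reagent and measure […].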

[2] = molecular target: GDP-bound KRAS wild-type protein (Homo sapiens, UniProt P01116); assay: Binding to KRAS by surface plasmon resonance (SPR), dissociation constant KD; details: 1:1 binding model
Outline: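 Biotinylated GDP-bound RAS was captured at about 100–300 RU. Running buffer: HBS pH 7.4, 10 mM MgCl2, 10 µM GDP, 1 mM DTT, 0.01% Tween 20, 4% DMSO.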

[3] = molecular target: GDP-bound NRAS wild-type protein (Homo sapiens, UniProt P01111); assay: Binding to NRAS by surface plasmon resonance (SPR), KD and KD ratio to KRAS
Outline: (§1)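 Captured GDP-RAS (~100–300 RU) was exposed to increasing compound concentrations, 75 s per step, in running buffer with 10 µM GDP, 10 mM MgCl2 and 4% DMSO at pH 7.4.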

HRAS wild-type protein = HRAS wild-type protein (Homo sapiens, UniProt P01112); assay: Binding to HRAS by surface plasmon resonance (SPR), KD and KD ratio to KRAS
Outline: as §1

[4] = ratio of the KD value with respect to GDP-bound NRAS wild-type protein to the KD value with respect to KRAS
[5] = ratio of the KD value with respect to HRAS wild-type protein to the KD value with respect to KRAS
[6] = ratio of KD for GDP-bound NRAS wild-type protein to KD for KRAS
[7] = ratio of KD for HRAS wild-type protein to KD for KRAS
[8] = ratio of KD value for GDP-bound NRAS wild-type protein to KD value for KRAS (SPR)
[9] = ratio of KD value for HRAS wild-type protein to KD value for KRAS (SPR)

Chain of GDP-bound NRAS wild-type protein (P01111 whole entry): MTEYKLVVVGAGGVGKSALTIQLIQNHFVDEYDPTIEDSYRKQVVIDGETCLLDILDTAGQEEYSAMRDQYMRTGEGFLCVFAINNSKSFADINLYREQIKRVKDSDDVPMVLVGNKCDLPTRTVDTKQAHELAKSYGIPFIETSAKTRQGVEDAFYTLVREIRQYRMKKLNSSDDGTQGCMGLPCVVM
Chain of HRAS wild-type protein (P01112 whole entry): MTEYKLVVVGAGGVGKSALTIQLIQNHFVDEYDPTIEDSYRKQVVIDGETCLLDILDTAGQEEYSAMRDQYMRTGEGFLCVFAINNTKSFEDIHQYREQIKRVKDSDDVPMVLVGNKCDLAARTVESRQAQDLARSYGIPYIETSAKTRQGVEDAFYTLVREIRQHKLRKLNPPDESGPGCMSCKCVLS
Chain of GDP-bound KRAS wild-type protein (P01116 1-188 isoform P01116-2): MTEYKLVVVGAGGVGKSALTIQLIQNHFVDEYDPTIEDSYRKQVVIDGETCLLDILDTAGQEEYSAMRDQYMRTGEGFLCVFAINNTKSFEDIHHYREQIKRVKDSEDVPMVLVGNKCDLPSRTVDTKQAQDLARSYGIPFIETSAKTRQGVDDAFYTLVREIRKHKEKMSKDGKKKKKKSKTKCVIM

SMILES | IC50 [1] [nM] | Kd ([2]; Single Cycle Kinetics) [nM] | NRAS /KRAS [3, 4] | HRAS /KRAS (HRAS wild-type protein; [5]) | Kd [2] [nM] | NRAS /KRAS [3, 6] | HRAS /KRAS (HRAS wild-type protein; [7]) | NRAS /KRAS [3, 8] | HRAS /KRAS (HRAS wild-type protein; [9])
CC[C@H](C)[C@@H]1NC(=O)[C@H](CC(C)C)N(C)C(=O)C[C@@H](C(=O)N2CCOCC2)N(C)C(=O)[C@H](C2CCCC2)N(C)C(=O)C2(CCCC2)NC(=O)[C@@H]2CCCN2C(=O)[C@H](CCc2ccc(C(F)(F)F)c(Cl)c2)NC(=O)CN(C)C(=O)[C@H](Cc2ccccc2)N2CCCCC[C@@H](C2=O)N(C)C(=O)CN(C)C1=O [PP0611] | 88.9 | 0.73 | B (a compound having 3 or more and less than 10 is denoted as B) | B (a compound having 3 or more and less than 10 is denoted as B) |  |  |  |  | 
CCO[C@@H]1C[C@H]2C(=O)NC3(CC(C)(C)C3)C(=O)N(C)[C@@H](C3CCCC3)C(=O)N(C)[C@H](C(=O)N(C)C)CC(=O)N(C)[C@@H]([C@H](C)OC)C(=O)N[C@@H]([C@@H](C)CC)C(=O)N3CCC[C@H]3C(=O)N(C)[C@H]3C/C=C\CCN(C3=O)[C@@H](Cc3ccc(C(F)(F)F)cc3)C(=O)N(C)CC(=O)N[C@@H](CCc3ccc(C(F)(F)F)c(Cl)c3)C(=O)N2C1 [PP3183] | 63.6 |  |  |  | 1.2 | B (a compound having 3 or more and less than 10 is denoted as B) | B (a compound having 3 or more and less than 10 is denoted as B) |  | 
CCO[C@@H]1C[C@H]2C(=O)NC3(CC(C)(C)C3)C(=O)N(C)[C@@H](C3CCCC3)C(=O)N(C)[C@H](C(=O)N(C)C)CC(=O)N(C)[C@H]3CCCCC/C=C/c4ccc(cc4)C[C@@H](C(=O)N(C)CC(=O)N[C@@H](CCc4ccc(Cl)c(Cl)c4)C(=O)N2C1)N1CC/C=C\C[C@@H](C1=O)N(C)C(=O)CN(C)C(=O)[C@H]([C@@H](C)CC)NC3=O [PP3057] | 8.5 |  |  |  | 0.17 | A (a compound having 10 or more and less than 20 is denoted as A) | B (a compound having 3 or more and less than 10 is denoted as B) |  | 
CCC[C@H]1C(=O)N[C@@H]([C@@H](C)CC)C(=O)N(C)CC(=O)N(C)[C@H]2C/C=C\CCN(C2=O)[C@@H](Cc2ccc(C)cc2)C(=O)N(C)CC(=O)N[C@@H](CCc2ccc(C(F)(F)F)c(Cl)c2)C(=O)N2C[C@H](C)C[C@H]2C(=O)NC2(CC(C)(C)C2)C(=O)N(C)[C@@H](C2CCCC2)C(=O)N(C)[C@H](C(=O)N(C)CC)CC(=O)N1C [PP1894] | 15.9 | 0.2 |  |  |  |  |  | A (a compound having 10 or more and less than 20 is denoted as A) | A (a compound having 10 or more and less than 20 is denoted as A)
CCO[C@@H]1C[C@H]2C(=O)NC3(CC(C)(C)C3)C(=O)N(C)[C@@H](C3CCCC3)C(=O)N(C)[C@H](C(=O)N(C)C)CC(=O)N(C)[C@@H]([C@H](C)OC)C(=O)N[C@@H]([C@@H](C)CC)C(=O)N(C)CC(=O)N(C)[C@H]3C/C=C\CCN(C3=O)[C@@H](Cc3ccc(C)cc3)C(=O)N(C)CC(=O)N[C@@H](CCc3ccc(C(F)(F)F)c(Cl)c3)C(=O)N2C1 [PP3189] | 18.5 |  |  |  | 0.12 | A (a compound having 10 or more and less than 20 is denoted as A) | A (a compound having 10 or more and less than 20 is denoted as A) |  | 
CCC[C@H]1C(=O)N[C@@H]([C@@H](C)CC)C(=O)N(C)CC(=O)N(C)[C@H]2C/C=C\CCN(C2=O)[C@@H](Cc2ccc(C)cc2)C(=O)N(C)CC(=O)N[C@@H](CCc2cc(F)c(C(F)(F)F)c(F)c2)C(=O)N2C[C@H](OCC)C[C@H]2C(=O)NC2(CC(C)(C)C2)C(=O)N(C)[C@@H](CC2CC2)C(=O)N(C)[C@H](C(=O)N(C)C)CC(=O)N1C [PP2797] | 52.8 |  |  |  | 0.6 | A (a compound having 10 or more and less than 20 is denoted as A) | A (a compound having 10 or more and less than 20 is denoted as A) |  | 
CC[C@@H]1C[C@H]2C(=O)NC3(CCC3)C(=O)N(C)[C@@H](C3CCCC3)C(=O)N(C)[C@H](C(=O)N(C)C)CC(=O)N(C)[C@@H](CC(C)C)C(=O)N[C@@H]([C@@H](C)CC)C(=O)N(C)CC(=O)N(C)[C@H]3C/C=C\CCN(C3=O)[C@@H](Cc3ccc(C)cc3)C(=O)N(C)CC(=O)N[C@@H](CCc3cc(F)c(C(F)(F)F)c(F)c3)C(=O)N2C1 [PP2220] | 32.1 | 0.14 | A (a compound having 10 or more and less than 20 is denoted as A) | A (a compound having 10 or more and less than 20 is denoted as A) |  |  |  |  | 
CCC[C@H]1C(=O)N[C@@H](C2CCCC2)C(=O)N(C)CC(=O)N(C)[C@H]2C/C=C\CCN(C2=O)[C@@H](Cc2ccc(C)cc2)C(=O)N(C)CC(=O)N[C@@H](CCc2ccc(C(F)(F)F)c(OC)c2)C(=O)N2C[C@H](OCC)C[C@H]2C(=O)NC2(CC(C)(C)C2)C(=O)N(C)[C@@H](CC(C)(C)C)C(=O)N(C)[C@H](C(=O)N(C)C)CC(=O)N1C [PP3005] | 8.8 |  |  |  | 0.15 | A (a compound having 10 or more and less than 20 is denoted as A) | B (a compound having 3 or more and less than 10 is denoted as B) |  | 
CC[C@H](C)[C@@H]1NC(=O)[C@H](C2CCC2)N(C)C(=O)C[C@@H](C(=O)N(C)CC)N(C)C(=O)[C@H](C2CCCC2)N(C)C(=O)C2(CCC2)NC(=O)[C@@H]2C[C@H](C)CN2C(=O)[C@H](CCc2cc(F)c(C(F)(F)F)c(F)c2)NC(=O)CN(C)C(=O)[C@H](Cc2ccc(C(F)(F)F)cc2)N2CC/C=C\C[C@@H](C2=O)N(C)C(=O)CN(C)C1=O [PP2082] | 7.8 | 0.11 | AA (a compound having 20 or more is denoted as AA) | A (a compound having 10 or more and less than 20 is denoted as A) |  |  |  |  | 
CC[C@H](C)[C@@H]1NC(=O)[C@@H](CC(C)C)N(C)C(=O)C[C@@H](C(=O)N2CCOCC2)N(C)C(=O)[C@H](C2CCCC2)N(C)C(=O)C2(CCCC2)NC(=O)[C@@H]2CCCN2C(=O)[C@H](CCc2cc(F)c(C(F)(F)F)c(F)c2)NC(=O)CN(C)C(=O)[C@H](Cc2ccc(C(F)(F)F)cc2)N2CCCC[C@@H](C2=O)N(C)C(=O)CN(C)C1=O [PP0591] | 3890 | 87 | B (a compound having 3 or more and less than 10 is denoted as B) | B (a compound having 3 or more and less than 10 is denoted as B) |  |  |  |  | 
CC[C@H](C)[C@@H]1NC(=O)[C@H](C2CC2)N(C)C(=O)C[C@@H](C(=O)N(C)CC)N(C)C(=O)[C@H](C2CCCC2)N(C)C(=O)C2(CC(C)(C)C2)NC(=O)[C@@H]2C[C@H](C)CN2C(=O)[C@H](CCc2cc(F)c(C(F)(F)F)c(F)c2)NC(=O)CN(C)C(=O)[C@H](Cc2ccc(C(F)(F)F)cc2)N2CC/C=C\C[C@@H](C2=O)N(C)C(=O)CN(C)C1=O [PP1980] | 30.1 | 0.36 | A (a compound having 10 or more and less than 20 is denoted as A) | B (a compound having 3 or more and less than 10 is denoted as B) |  |  |  |  | 
CCO[C@@H]1C[C@H]2C(=O)NC3(CC(C)(C)C3)C(=O)N(C)[C@@H](C3CCCC3)C(=O)N(C)[C@H](C(=O)N(C)C)CC(=O)N(C)[C@@H]([C@H](C)OC)C(=O)N[C@@H]([C@@H](C)CC)C(=O)N(C)CC(=O)N(C)[C@H]3C/C=C\CCN(C3=O)[C@@H](Cc3ccc(C)cc3)C(=O)N(C)CC(=O)N[C@@H](CCc3cc(F)c(C(F)(F)F)c(F)c3)C(=O)N2C1 [PP3187] | 10.4 |  |  |  | 0.082 | A (a compound having 10 or more and less than 20 is denoted as A) | A (a compound having 10 or more and less than 20 is denoted as A) |  | 
CC[C@H](C)[C@@H]1NC(=O)[C@H](CC(C)C)N(C)C(=O)C[C@@H](C(=O)N(C)C)N(C)C(=O)[C@H](C2CCCC2)N(C)C(=O)C2(CCC2)N(C)C(=O)[C@@H]2CCCN2C(=O)[C@H](CCc2cc(F)c(C(F)(F)F)c(F)c2)NC(=O)CN(C)C(=O)[C@H](Cc2ccc(C)cc2)N2CC/C=C\C[C@@H](C2=O)N(C)C(=O)CN(C)C1=O [PP1791] | 3.7 | 0.042 |  |  |  |  |  | A (a compound having 10 or more and less than 20 is denoted as A) | A (a compound having 10 or more and less than 20 is denoted as A)
CC[C@H](C)[C@@H]1NC(=O)[C@H](CC(C)C)N(C)C(=O)C[C@@H](C(=O)N2CCOCC2)N(C)C(=O)[C@H](C(C)C)N(C)C(=O)C2(CCCC2)NC(=O)[C@@H]2CCCN2C(=O)[C@H](CCc2ccc(C(F)(F)F)c(Cl)c2)NC(=O)CN(C)C(=O)[C@H](Cc2ccc(C)cc2)N(CC)C(=O)CN(C)C(=O)CN(C)C1=O [PP0044] ([NMeL]I[Sar][Sar][NEtPhe(4-Me)][Sar][hPhe(3-Cl-4-CF3)]P[Ac5c][NMeV][NMeD]-Morpholide; lactam N-11) | 142 |  |  |  | 3.6 | C (A compound having a KD ratio of 0.1 or more and less than 3 is denoted as C) | C (A compound having a KD ratio of 0.1 or more and less than 3 is denoted as C) |  | 
CCO[C@@H]1C[C@H]2C(=O)NC3(CCC3)C(=O)N(C)[C@@H](C(CC)CC)C(=O)N(C)[C@H](C)CC(=O)N(C)[C@@H](CC3CC3)C(=O)N[C@@H]([C@@H](C)CC)C(=O)N(C)CC(=O)N(C)[C@H]3C/C=C\CCN(C3=O)[C@@H](Cc3ccc(F)cc3C)C(=O)N(C)CC(=O)N[C@@H](CCc3cc(F)c(C(F)(F)F)c(F)c3)C(=O)N2C1 [PP1520] | 575 | 6.6 |  |  |  |  |  | A (a compound having 10 or more and less than 20 is denoted as A) | A (a compound having 10 or more and less than 20 is denoted as A)

Reference: patent EP4603105A1, “PHARMACEUTICAL COMPOSITION CONTAINING CYCLIC COMPOUND HAVING SELECTIVE KRAS INHIBITORY EFFECT AGAINST HRAS AND NRAS” (CHUGAI SEIYAKU KABUSHIKI KAISHA, priority 2022, dated 2024)
